From PubChem BioAssay AID264 (DTP/NCI, 2004)
Several values for one entry are separate records, joined by “and”; a condition that tells them apart may be missing. Identical values can stand only once. Inconclusive results are not listed.

Tested on: nude mice, LX-1 lung xenograft intrarenal, tumor weight T/C
Test: NCI In Vivo Anticancer Drug Screen. Data for tumor model Human Lung LX-1 Xenograft (intrarenal inoculation) in NU/NU Swiss (nude) mice
Conditions: endpoint: mean tumor weight change, higher = larger tumour
How it was run: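 Activity was scored by measuring tumors in treated animals and in vehicle controls, then reporting the treated result as a fraction of the control result.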

[1] = dose: 25.0 mg/kg/injection, schedule: Q04DX003 (sc), vehicle: saline with Tween-80
[2] = dose: 50.0 mg/kg/injection, schedule: Q04DX003 (sc), vehicle: saline with Tween-80
[3] = dose: 100.0 mg/kg/injection, schedule: Q04DX003 (sc), vehicle: saline with Tween-80
[4] = dose: 200.0 mg/kg/injection, schedule: Q04DX003 (sc), vehicle: saline with Tween-80
[5] = dose: 1200.0 mg/kg/injection, schedule: Q04DX003 (sc), vehicle: saline with Tween-80
[6] = dose: 4.0 mg/kg/injection, schedule: Q01DX010 (sc), vehicle: saline
[7] = dose: 8.0 mg/kg/injection, schedule: Q01DX010 (sc), vehicle: saline
[8] = dose: 16.0 mg/kg/injection, schedule: Q01DX010 (sc), vehicle: saline
[9] = dose: 150.0 mg/kg/injection, schedule: Q04DX003 (sc), vehicle: saline with Tween-80
[10] = dose: 300.0 mg/kg/injection, schedule: Q04DX003 (sc), vehicle: saline with Tween-80
[11] = dose: 600.0 mg/kg/injection, schedule: Q04DX003 (sc), vehicle: saline with Tween-80
[12] = dose: 150.0 mg/kg/injection, schedule: Q04DX003 (sc), vehicle: Klucel (hydroxypropylcellulose) (HPC)
[13] = dose: 300.0 mg/kg/injection, schedule: Q04DX003 (sc), vehicle: Klucel (hydroxypropylcellulose) (HPC)
[14] = dose: 2400.0 mg/kg/injection, schedule: Q04DX003 (sc), vehicle: saline with Tween-80

With `COC(=O)Nc1nc2ccc(C3(c4ccc(F)cc4)OCCO3)cc2[nH]1` the T/C [1] was 76 % of control, the T/C [2] was 71 % of control and the T/C [3] was 89 % of control. For the same compound, the T/C [4] was 79 % of control and the T/C [5] was 17 % of control and 37 % of control.

In the case of `CC[C@@]1(O)C[C@H](OC2CC(N(C)C)C(OC3CC(O)C(OC4CCC(=O)C(C)O4)C(C)O3)C(C)O2)c2c(cc3c(c2O)C(=O)c2c(O)cccc2C3=O)[C@H]1C(=O)OC` (some centres not stated), the T/C (dose: 0.5 mg/kg/injection, schedule: Q01DX010 (sc), vehicle: water) is reported as 105 % of control, the T/C (dose: 1.0 mg/kg/injection, schedule: Q01DX010 (sc), vehicle: water) is reported as 69 % of control and the T/C (dose: 1.66 mg/kg/injection, schedule: Q04DX003 (ip), vehicle: water) is reported as 24 % of control. For the same compound, the T/C (dose: 2.0 mg/kg/injection, schedule: Q01DX010 (sc), vehicle: water) was 83 % of control and the T/C (dose: 3.33 mg/kg/injection, schedule: Q04DX003 (ip), vehicle: water) was 22 % of control.

For `Nc1nc(/C=C(/O)c2ccccc2)c2ncn(C3OC(CO)C(O)C3O)c2n1` (configuration not stated), the T/C (dose: 100.0 mg/kg/injection, schedule: Q04DX003 (sc), vehicle: distilled water + Tween-80) was 111 % of control, the T/C (dose: 200.0 mg/kg/injection, schedule: Q04DX003 (sc), vehicle: distilled water + Tween-80) was 100 % of control and the T/C (dose: 400.0 mg/kg/injection, schedule: Q04DX003 (sc), vehicle: distilled water + Tween-80) was 99 % of control.

In the case of `O=C(Nc1ccc(C2=NCCN2)cc1)c1ccc(C(=O)Nc2ccc(C3=NCCN3)cc2)c(Cl)c1`, the T/C (dose: 12.5 mg/kg/injection, schedule: Q01DX010 (sc), vehicle: water) is reported as 74 % of control, the T/C (dose: 25.0 mg/kg/injection, schedule: Q01DX010 (sc), vehicle: water) is reported as 71 % of control and the T/C (dose: 50.0 mg/kg/injection, schedule: Q01DX010 (sc), vehicle: water) is reported as 34 % of control.

In the case of `COc1ccc(C(=O)c2no[n+]([O-])c2C(=O)c2ccc(OC)cc2)cc1`, the T/C [3] is reported as 84 % of control, the T/C [4] is reported as 91 % of control and the T/C (dose: 400.0 mg/kg/injection, schedule: Q04DX003 (sc), vehicle: saline with Tween-80) is reported as 99 % of control. The T/C (dose: 800.0 mg/kg/injection, schedule: Q04DX003 (sc), vehicle: saline with Tween-80) was 109 % of control.

`COc1cc([C@@H]2c3cc4c(cc3[C@@H](OC3OC5COC(C)OC5C(O)C3O)[C@H]3COC(=O)[C@H]23)OCO4)cc(OC)c1O` (some centres not stated) was tested, and the T/C (dose: 2.0 mg/kg/injection, schedule: Q01DX010 (sc), vehicle: saline) was 153 % of control, the T/C [6] was 80 % of control and the T/C [7] was 85 % of control. The T/C [8] was 31 % of control.

For `C/C=C/c1cc2c(c(=O)o1)C(=O)[C@@H](O)[C@H](C)O2`, the T/C [1] was 92 % of control, the T/C [2] was 95 % of control and the T/C [3] was 75 % of control and 97 % of control. For the same compound, the T/C [4] was 82 % of control and 87 % of control.

With `O=[N+]([O-])c1ccc(N2CCOCC2)c2c1no[n+]2[O-]` the T/C [9] was 101 % of control, the T/C [10] was 57 % of control and the T/C [11] was 77 % of control. The T/C [5] was 98 % of control.

With `O=c1nc(-c2ccco2)sc(=O)[nH]1` the T/C [12] was 90 % of control, the T/C [13] was 68 % of control and the T/C (dose: 600.0 mg/kg/injection, schedule: Q04DX003 (sc), vehicle: Klucel (hydroxypropylcellulose) (HPC)) was 53 % of control. The T/C (dose: 1200.0 mg/kg/injection, schedule: Q04DX003 (sc), vehicle: Klucel (hydroxypropylcellulose) (HPC)) was 38 % of control.

In the case of `CC(=O)Nc1ccc(O)c(O)c1`, the T/C [10] is reported as 154 % of control, the T/C [11] is reported as 103 % of control and the T/C [14] is reported as 51 % of control.

For `Cc1c(N)nc(C(CC(N)=O)NCC(N)C(N)=O)nc1C(=O)NC(C(=O)NC(C)C(O)C(C)C(=O)NC(C(=O)NCCc1nc(-c2nc(C(=O)NCCCNCCCc3ccccn3)cs2)cs1)C(C)O)C(OC1OC(CO)C(O)C(O)C1OC1OC(CO)C(O)C(OC(N)=O)C1O)c1cnc[nH]1` (configuration not stated), the T/C (dose: 3.0 mg/kg/injection, schedule: Q01DX010 (sc), vehicle: water) was 16 % of control and the T/C (dose: 12.0 mg/kg/injection, schedule: Q01DX010 (sc), vehicle: water) was -82 % of control.

For `Nc1ccn(C2OC(CO)C(O)C2O)c(=O)n1` (configuration not stated), the T/C (dose: 31.25 mg/kg/injection, schedule: Q01DX010 (sc), vehicle: water) was 73 % of control and 95 % of control, the T/C (dose: 600.0 mg/kg/injection, schedule: Q04DX003 (sc), vehicle: water) was 47 % of control and the T/C (dose: 819.2 mg/kg/injection, schedule: Q04DX003 (sc), vehicle: water) was 46 % of control. The T/C (dose: 1024.0 mg/kg/injection, schedule: Q04DX003 (sc), vehicle: water) was 61 % of control, the T/C (dose: 1200.0 mg/kg/injection, schedule: Q04DX003 (sc), vehicle: water) was 34 % of control and the T/C (dose: 1280.0 mg/kg/injection, schedule: Q04DX003 (sc), vehicle: water) was 23 % of control. The T/C (dose: 1600.0 mg/kg/injection, schedule: Q04DX003 (sc), vehicle: water) was 20 % of control.

`C=CCOCC1CO1` (configuration not stated) was tested, and the T/C (dose: 100.0 mg/kg/injection, schedule: Q01DX010 (sc), vehicle: saline) was 87 % of control, the T/C (dose: 200.0 mg/kg/injection, schedule: Q01DX010 (sc), vehicle: saline) was 104 % of control and the T/C (dose: 400.0 mg/kg/injection, schedule: Q01DX010 (sc), vehicle: saline) was 69 % of control.

With `CCCCCC#CC1OC12CCCCC2` (configuration not stated) the T/C [10] was 97 % of control, the T/C [11] was 93 % of control and the T/C [5] was 60 % of control. The T/C [14] was 79 % of control.

`C[CH2][Pb]([CH2]C)([CH2]C)[O]C(=O)COc1ccccc1` was tested, and the T/C (dose: 9.0 mg/kg/injection, schedule: Q04DX003 (sc), vehicle: saline with Tween-80) was 47 % of control and the T/C (dose: 18.0 mg/kg/injection, schedule: Q04DX003 (sc), vehicle: saline with Tween-80) was 47 % of control.

In the case of `O=NN(CCCl)C(=O)NCCCl`, the T/C [6] is reported as 44 % of control and 51 % of control and 65 % of control, the T/C (dose: 7.5 mg/kg/injection, schedule: Q04DX003 (sc), vehicle: suspension in saline) is reported as 90 % of control and the T/C [7] is reported as 16 % of control and 17 % of control. For the same compound, the T/C (dose: 13.33 mg/kg/injection, schedule: Q04DX003 (sc), vehicle: saline) was 9 % of control, the T/C (dose: 15.0 mg/kg/injection, schedule: Q04DX003 (sc), vehicle: suspension in saline) was 31 % of control and the T/C [8] was -75 % of control and -72 % of control and -67 % of control. The T/C (dose: 26.65 mg/kg/injection, schedule: Q04DX003 (sc), vehicle: saline) was -32 % of control, the T/C (dose: 30.0 mg/kg/injection, schedule: Q04DX003 (sc), vehicle: suspension in saline) was 1 % of control and the T/C (dose: 32.0 mg/kg/injection, schedule: Q01DX010 (sc), vehicle: saline) was -9 % of control and -3 % of control. For the same compound, the T/C (dose: 53.3 mg/kg/injection, schedule: Q04DX003 (sc), vehicle: saline) was -84 % of control and the T/C (dose: 60.0 mg/kg/injection, schedule: Q04DX003 (sc), vehicle: suspension in saline) was 16 % of control.

With `COC(=O)C(Cl)(Cl)N=Nc1c(Cl)cc(Cl)c(C)c1Cl` the T/C [9] was 210 % of control, the T/C [10] was 196 % of control and the T/C [11] was 237 % of control. The T/C [5] was 209 % of control.

`COc1ccc(C(N)=O)cc1N=NN(C)C` was tested, and the T/C (dose: 12.5 mg/kg/injection, schedule: Q01DX010 (sc), vehicle: Klucel (hydroxypropylcellulose) (HPC)) was 9 % of control, the T/C (dose: 25.0 mg/kg/injection, schedule: Q01DX010 (sc), vehicle: Klucel (hydroxypropylcellulose) (HPC)) was 6 % of control and 15 % of control and the T/C (dose: 37.5 mg/kg/injection, schedule: Q04DX003 (sc), vehicle: Klucel (hydroxypropylcellulose) (HPC)) was 23 % of control. For the same compound, the T/C (dose: 50.0 mg/kg/injection, schedule: Q01DX010 (sc), vehicle: Klucel (hydroxypropylcellulose) (HPC)) was -25 % of control, the T/C (dose: 75.0 mg/kg/injection, schedule: Q04DX003 (sc), vehicle: Klucel (hydroxypropylcellulose) (HPC)) was 13 % of control and the T/C [12] was 8 % of control. The T/C [13] was 8 % of control.

`Cc1cc(NCCCN(C)C)c2ccc3c(ccc4c(NCCCN(C)C)cc(C)nc43)c2n1` was tested, and the T/C (dose: 9.38 mg/kg/injection, schedule: Q04DX003 (sc), vehicle: saline with Tween-80) was 86 % of control and the T/C (dose: 18.75 mg/kg/injection, schedule: Q04DX003 (sc), vehicle: saline with Tween-80) was 82 % of control.

With `CCN(CC)CCOC(=O)Cc1cccc2c(=O)cc(-c3ccccc3)oc12` the T/C [3] was 112 % of control and the T/C [4] was 44 % of control.

With `[Cl][Pt+2][Cl].[NH-]C1CCC1.[NH2-]` the T/C (dose: 12.5 mg/kg/injection, schedule: Q04DX003 (sc), vehicle: suspension in saline) was 57 % of control.

In the case of `CC(=O)OCC1OC(n2cc(CBr)nn2)C(OC(C)=O)C(OC(C)=O)C1OC(C)=O` (configuration not stated), the T/C (dose: 50.0 mg/kg/injection, schedule: Q01DX010 (sc), vehicle: saline with Tween-80) is reported as 177 % of control, the T/C (dose: 100.0 mg/kg/injection, schedule: Q01DX010 (sc), vehicle: saline with Tween-80) is reported as 101 % of control and the T/C (dose: 400.0 mg/kg/injection, schedule: Q01DX010 (sc), vehicle: saline with Tween-80) is reported as 46 % of control.
